# Test results as given in PubChem BioAssay (NCI).
#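 Five compound concentrations were applied to cells in 96-well plates for 48 hours; endpoints were derived by simple linear interpolation of the resulting dose-response curve. TGI marks complete inhibition of growth.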
# Key:
# Test in all cases: NCI anticancer screen, dose series, 48 h
# [1] = system: SK-OV-3 ovarian
# [2] = system: HOP-92 NSCLC
# [3] = system: OVCAR-5 ovarian
# [4] = system: BT-549 breast
# [5] = system: HOP-62 NSCLC
# [6] = system: HCC-2998 colon
# [7] = system: NCI-H460 lung
# [8] = system: RXF 393 renal
# [9] = system: OVCAR-8 ovarian
# [10] = system: COLO 205 colon
# [11] = system: UACC-62 melanoma
# [12] = system: UO-31 renal
# [13] = system: SK-MEL-2 melanoma
# [14] = system: SF-539 CNS
SMILES,TGI [1] [µM],TGI [2] [µM],TGI [3] [µM],TGI [4] [µM],TGI [5] [µM],TGI [6] [µM],TGI [7] [µM],TGI [8] [µM],TGI [9] [µM],TGI [10] [µM],TGI [11] [µM],TGI [12] [µM],TGI [13] [µM],TGI [14] [µM]
COc1cc(/C=C2\N=C(c3ccccc3)N(/N=C/c3cc4cc(C)ccc4nc3Cl)C2=O)ccc1O,> 100,> 100,> 100,> 100,> 100,> 100,> 100,> 100,> 100,> 100,> 100,> 100,38.4,> 100
COC(=O)C1(Cc2ccccc2C)Cc2ccc(C)cc2C1=O (stereo unspecified),> 100,71.3,> 100,> 100,> 100,> 100,> 100,96.4,> 100,38.1,> 100,> 100,47.7,> 100
COc1cc(O)c2c(=O)cc(C3(OC(C)=O)C=CC(OC4OC(CO)C(O)C(O)C4O)C=C3)oc2c1 (stereo unspecified),> 100,> 100,> 100,> 100,> 100,> 100,> 100,> 100,> 100,> 100,> 100,> 100,> 100,> 100
OCC1OC(NC(=S)NCSCCC(F)(F)C(F)(F)C(F)(F)C(F)(F)C(F)(F)C(F)(F)F)C(O)C(O)C1O (stereo unspecified),> 100,66.4,> 100,> 100,> 100,> 100,> 100,> 100,–,> 100,> 100,> 100,> 100,47.2
CC1=NN(c2ccccc2Cl)C2(C1)SCC(=O)N2c1nc2ccccc2s1 (stereo unspecified),> 100,> 100,> 100,> 100,> 100,> 100,> 100,> 100,> 100,> 100,> 100,> 100,> 100,> 100
c1ncc(C23C4C5C6C4C2C6C53)[nH]1 (stereo unspecified),> 100,> 100,> 100,> 100,> 100,> 100,> 100,> 100,> 100,> 100,> 100,> 100,> 100,> 100
O=C1NC(c2ccccc2)C1N(Cc1ccccc1)Cc1ccccc1 (stereo unspecified),> 100,> 100,> 100,> 100,> 100,> 100,> 100,> 100,> 100,> 100,> 100,> 100,> 100,> 100
COC(=O)c1c(OC(C)=O)ccc2c1c1c(n2Cc2ccccc2)C(=O)c2ccccc2C1=O,66.9,39.8,41.3,48.5,44.5,30.3,> 100,37.8,89.1,30.5,48.8,> 100,36.2,33.7
NC(N)=NCCCS(=O)(=O)Nc1ccc(Nc2c3ccccc3nc3cc([N+](=O)[O-])ccc23)cc1,55.5,28.5,> 74.1,94.4,39.3,44.1,33,67.2,> 92.9,56.2,51.7,> 100,66.1,52.1
O=C(O)c1ccccc1/C=C1\Cc2ccc3c(c2C1=O)CCCC3,> 100,47.6,> 100,> 100,> 100,85.1,> 100,76.3,> 100,> 100,46.5,> 100,88.7,81.6
ClCc1nc2cc(Cl)ccc2o1,28.9,3.87,38.6,28.2,8.28,5.9,31.6,29.8,20,9,23.1,2.54,16,17.8
Cc1c(/C=N\NC(=S)N(C)CCN(C)C(=S)N/N=C\c2c(C)n(C)n(-c3ccccc3)c2=O)c(=O)n(-c2ccccc2)n1C,> 100,> 100,> 100,> 100,> 100,> 100,> 100,> 100,–,> 100,> 100,> 100,> 100,> 100
CCOC(=O)c1c(C)n(-c2ccc(C)cc2)c2c1cc(O)c1[nH]c3c(c12)CCCC3,> 100,23.6,> 100,26.2,> 100,34.1,84.5,27,82.3,> 100,46.7,27.9,33.7,30.2
C=CCSC1=N/C(=C\c2ccco2)C(=O)N1CC=C,> 100,> 100,> 100,> 100,> 100,> 100,> 100,65.7,> 100,> 100,> 100,> 100,> 100,> 100
C[N+](C)(C)C(Cc1c[nH]c(=S)[nH]1)C(=O)O (stereo unspecified),> 100,> 100,> 100,> 100,> 100,> 100,> 100,> 100,> 100,> 100,> 100,> 100,> 100,> 100
CC(C)Cn1cnnc1NS(=O)(=O)c1cc(C(=O)NN)c(Cl)cc1S,> 10,> 10,> 10,> 10,> 10,> 10,> 10,> 10,> 10,> 10,> 10,–,> 10,> 10
O=C(c1no[n+]([O-])c1C(=O)c1csc2ccccc12)c1csc2ccccc12,33,5.01,35.4,19.3,25.4,18.4,28.3,19.4,11.4,9,25.7,1.02,20.7,8.36
CCOC(=O)c1cc(NC(=O)c2ccccc2)c(=O)n2c(cc3c(Cl)cccc32)c1O,> 100,> 100,> 100,> 100,> 100,> 100,> 100,> 100,> 100,> 100,> 100,> 100,> 100,> 100
O=Cc1cc(O)ccc1Br,> 100,75.7,> 100,> 83.4,> 96.2,30.1,> 100,> 100,53.7,> 100,50.4,> 81,> 93.2,60.5
CCOC(=O)CC(=O)Nc1c(C(=O)OCC)sc2nc(SC)nc(Nc3ccc(OC)c(OC)c3)c12,–,33.7,> 100,> 100,–,> 100,–,25.1,> 100,> 100,> 100,> 100,> 100,69.2
Nc1nc(Cl)cc(NCC2(CO)CC(O)C2)n1 (stereo unspecified),> 100,> 100,> 100,> 100,> 100,> 100,> 100,> 100,> 100,> 100,> 100,> 100,> 100,> 100
O=C(CCl)Nc1ccc(-c2nc3ccccc3s2)cc1,17.5,6.08,17.1,2.95,12.3,5.91,7.46,7.67,9.66,3.82,8.71,20.6,8.37,8.16
Nc1nc(Cl)c(N)c(NCC2(CO)CC(O)C2)n1 (stereo unspecified),> 100,> 100,> 100,> 100,> 100,> 100,> 100,> 100,> 100,> 100,> 100,> 100,> 100,> 100
COc1cc([C@@H]2c3cc4c(cc3[C@@H](N=Cc3ccc(C(=O)O[C@H]5C[C@H]6OC[C@@]6(OC(C)=O)[C@H]6[C@H](OC(=O)c7ccccc7)[C@]7(O)C[C@H](OC(=O)[C@H](OC(=O)c8ccc(C=N[C@@H]9c%10cc%11c(cc%10[C@@H](c%10cc(OC)c(O)c(OC)c%10)[C@H]%10C(=O)OC[C@@H]%109)OCO%11)cc8)[C@@H](NC(=O)c8ccccc8)c8ccccc8)C(C)=C([C@@H](OC(C)=O)C(=O)[C@]56C)C7(C)C)cc3)C3COC(=O)C32)OCO4)cc(C)c1O (stereo partly specified),> 39.3,> 50,> 23.6,> 50,> 50,> 50,> 50,> 50,> 50,> 50,> 39.2,–,> 50,> 37.8
c1cc(-c2ccc(Oc3ccc(-c4ccncc4)cc3)cc2)ccn1,> 100,> 88.6,> 100,> 59.7,> 100,> 54.5,> 94.2,> 86,> 100,18.7,> 100,> 100,> 100,> 100
[N-]=[N+]=NC1=C(N=[N+]=[N-])c2cccc3cccc(c23)C1=O,> 100,> 100,> 100,> 100,> 100,> 100,> 100,> 100,> 100,> 100,> 100,> 100,> 100,> 100
CCCCC[C@H]1CC=CC(=O)O1,39.7,53.3,70,20.3,45.3,19.7,21.2,9.16,24.8,15.1,23,24,19.1,4.82
CC(=O)NC1C(OCc2ccccc2)OC(CO)C(O)C1OCC(=O)NC(C)C(=O)NC(CCC(=O)Nc1ccc2c(c1)CN1C(=O)c3ccccc3C1=N2)C(N)=O (stereo unspecified),> 100,> 100,> 100,> 100,> 100,> 100,> 100,> 100,> 100,> 100,> 100,> 100,> 100,> 100
O=C(O)C1CCCCN1CCc1c[nH]c2ccccc12 (stereo unspecified),> 100,> 100,> 100,> 100,> 100,> 100,> 100,> 100,> 100,> 100,> 100,–,> 100,> 100
CC1(c2nc3ccccc3[nH]2)CCC(CO)C(C)(C)O1 (stereo unspecified),> 100,> 100,> 100,> 100,> 100,> 100,–,> 100,> 100,> 100,> 100,> 100,> 100,> 100
